From PubChem BioAssay AID2060510 (Molecular Pharmacology Branch, DTP, NCI, 2025)

Test system: 439559-082-T-J2-PDC spheroids viability
Experiment: Anticancer human tumor 439559-082-T-J2-PDC patient-derived colon adenocarcinoma cell line growth inhibition [GQUAD]
Details: for IC50: curve of first compound; for viability, T/C: stronger effect = lower value
How it was run: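 Tumor cells were grown as complex spheroids with HUVEC endothelial cells and mesenchymal stem cells as stroma. G-quadruplex stabilizers were combined with targeted agents over half-log dilutions from near the clinical Cmax, or from 10 microM.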

[1] = second compound 0.0316 µM, first compound 0.0316 µM
[2] = second compound 0.0316 µM, first compound 0.1 µM
[3] = second compound 0.0316 µM, first compound 0.316 µM
[4] = second compound 0.0316 µM, first compound 1 µM
[5] = second compound 0.0316 µM, first compound 3.16 µM
[6] = second compound 0.0316 µM, first compound 10 µM
[7] = second compound 0.1 µM, first compound 0.0316 µM
[8] = second compound 0.1 µM, first compound 0.1 µM
[9] = second compound 0.1 µM, first compound 0.316 µM
[10] = second compound 0.1 µM, first compound 1 µM
[11] = second compound 0.1 µM, first compound 3.16 µM
[12] = second compound 0.1 µM, first compound 10 µM
[13] = second compound 0.316 µM, first compound 0.0316 µM
[14] = second compound 0.316 µM, first compound 0.1 µM
[15] = second compound 0.316 µM, first compound 0.316 µM
[16] = second compound 0.316 µM, first compound 1 µM
[17] = second compound 0.316 µM, first compound 3.16 µM
[18] = second compound 0.316 µM, first compound 10 µM
[19] = second compound 1 µM, first compound 0.0316 µM
[20] = second compound 1 µM, first compound 0.1 µM
[21] = second compound 1 µM, first compound 0.316 µM
[22] = second compound 1 µM, first compound 1 µM
[23] = second compound 1 µM, first compound 3.16 µM
[24] = second compound 1 µM, first compound 10 µM
[25] = second compound 3.16 µM, first compound 0.0316 µM
[26] = second compound 3.16 µM, first compound 0.1 µM
[27] = second compound 3.16 µM, first compound 0.316 µM
[28] = second compound 3.16 µM, first compound 1 µM
[29] = second compound 3.16 µM, first compound 3.16 µM
[30] = second compound 3.16 µM, first compound 10 µM
[31] = second compound 10 µM, first compound 0.0316 µM
[32] = second compound 10 µM, first compound 0.1 µM
[33] = second compound 10 µM, first compound 0.316 µM
[34] = second compound 10 µM, first compound 1 µM
[35] = second compound 10 µM, first compound 3.16 µM
[36] = second compound 10 µM, first compound 10 µM
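Further: spheroids exposed to the agents for 7 days before readout.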
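Wherever viability, T/C is given: percent of luminescence signal in DMSO vehicle wells taken as 100% viability.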

**Q.** Which results are given for Nc1ccn(C2OC(CO)C(O)C2(F)F)c(=O)n1 (centres undefined) + Cc1[nH]c2ccc(F)cc2c1-c1nc2c3cccnc3c3ncccc3c2[nH]1?
**A.** IC50 (second compound 0.0316 µM): 375 nM; IC50 (second compound 0.1 µM): 468 nM; IC50 (second compound 0.316 µM): 362 nM; IC50 (second compound 1 µM): 304 nM; IC50 (second compound 3.16 µM): 203 nM; IC50 (second compound 10 µM): 211 nM; viability, T/C [1]: 84.5%; viability, T/C [2]: 76.7%; viability, T/C [3]: 51.8%; viability, T/C [4]: 34.9%; viability, T/C [5]: 26.7%; viability, T/C [6]: 25.9%; viability, T/C [7]: 92.7%; viability, T/C [8]: 71.9%; viability, T/C [9]: 59%; viability, T/C [10]: 36.9%; viability, T/C [11]: 29.5%; viability, T/C [12]: 23.3%; viability, T/C [13]: 98.8%; viability, T/C [14]: 73.6%; viability, T/C [15]: 47.8%; viability, T/C [16]: 41.3%; viability, T/C [17]: 28.6%; viability, T/C [18]: 23.7%; viability, T/C [19]: 82.8%; viability, T/C [20]: 67.8%; viability, T/C [21]: 50.4%; viability, T/C [22]: 32.8%; viability, T/C [23]: 27.6%; viability, T/C [24]: 22.6%; viability, T/C [25]: 73.3%; viability, T/C [26]: 65.1%; viability, T/C [27]: 38.6%; viability, T/C [28]: 31%; viability, T/C [29]: 26.4%; viability, T/C [30]: 17.5%; viability, T/C [31]: 73.2%; viability, T/C [32]: 66.2%; viability, T/C [33]: 40.9%; viability, T/C [34]: 27%; viability, T/C [35]: 26.2%; viability, T/C [36]: 19%

**Q.** Which IC50 (second compound 0.0316 µM) does the source give for O=c1[nH]cc(F)c(=O)[nH]1 + Cc1[nH]c2ccc(F)cc2c1-c1nc2c3cccnc3c3ncccc3c2[nH]1 here?
**A.** > 10000 nM

**Q.** What about the IC50 (second compound 0.1 µM) of the same compound?
**A.** > 10000 nM

**Q.** What about the IC50 (second compound 0.316 µM) of the same compound?
**A.** > 10000 nM

**Q.** What about the IC50 (second compound 1 µM) of the same compound?
**A.** > 10000 nM

**Q.** What about the IC50 (second compound 3.16 µM) of the same compound?
**A.** > 10000 nM

**Q.** And the IC50 (second compound 10 µM)?
**A.** > 10000 nM

**Q.** What about the viability, T/C [1] of the same compound?
**A.** 90.7%

**Q.** And the viability, T/C [2]?
**A.** 95.5%

**Q.** What about the viability, T/C [3] of the same compound?
**A.** 87.7%

**Q.** And the viability, T/C [4]?
**A.** 78.9%

**Q.** And the viability, T/C [5]?
**A.** 76.8%

**Q.** And the viability, T/C [6]?
**A.** 82.3%

**Q.** And the viability, T/C [7]?
**A.** 101%

**Q.** What about the viability, T/C [8] of the same compound?
**A.** 89.8%

**Q.** What about the viability, T/C [9] of the same compound?
**A.** 83.3%

**Q.** What about the viability, T/C [10] of the same compound?
**A.** 75.1%

**Q.** What about the viability, T/C [11] of the same compound?
**A.** 73.3%

**Q.** And the viability, T/C [12]?
**A.** 83.4%

**Q.** What about the viability, T/C [13] of the same compound?
**A.** 101%

**Q.** What about the viability, T/C [14] of the same compound?
**A.** 99.2%

**Q.** What about the viability, T/C [15] of the same compound?
**A.** 83.7%

**Q.** And the viability, T/C [16]?
**A.** 74.8%

**Q.** And the viability, T/C [17]?
**A.** 79.5%

**Q.** And the viability, T/C [18]?
**A.** 76.3%

**Q.** And the viability, T/C [19]?
**A.** 91.9%

**Q.** And the viability, T/C [20]?
**A.** 96.3%

**Q.** What about the viability, T/C [21] of the same compound?
**A.** 79.1%

**Q.** What about the viability, T/C [22] of the same compound?
**A.** 72.8%

**Q.** What about the viability, T/C [23] of the same compound?
**A.** 70.6%

**Q.** And the viability, T/C [24]?
**A.** 72.3%

**Q.** And the viability, T/C [25]?
**A.** 103%

**Q.** What about the viability, T/C [26] of the same compound?
**A.** 88.8%

**Q.** What about the viability, T/C [27] of the same compound?
**A.** 76.5%

**Q.** And the viability, T/C [28]?
**A.** 65%

**Q.** And the viability, T/C [29]?
**A.** 62.5%

**Q.** What about the viability, T/C [30] of the same compound?
**A.** 59.1%

**Q.** And the viability, T/C [31]?
**A.** 82.2%

**Q.** What about the viability, T/C [32] of the same compound?
**A.** 81.9%

**Q.** What about the viability, T/C [33] of the same compound?
**A.** 67.9%

**Q.** What about the viability, T/C [34] of the same compound?
**A.** 59.3%

**Q.** What about the viability, T/C [35] of the same compound?
**A.** 57.5%

**Q.** What about the viability, T/C [36] of the same compound?
**A.** 59.8%
